Test results reported in ChEMBL document CHEMBL1770137, “High concentration electrophysiology-based fragment screen: discovery of novel acid-sensing ion channel 3 (ASIC3) inhibitors” (Bioorg Med Chem Lett, 2011).

Assays:
[1] = biological target: T1, Acid-sensing ion channel 3 (Homo sapiens, UniProt Q9UHC3); assay: Inhibition of human ASIC3 expressed in HEK293 cells assessed as inhibition of acid-evoked current by manual patch-clamp electrophysiology assay; assay type: cell-based
T1 sequence (Q9UHC3 whole entry): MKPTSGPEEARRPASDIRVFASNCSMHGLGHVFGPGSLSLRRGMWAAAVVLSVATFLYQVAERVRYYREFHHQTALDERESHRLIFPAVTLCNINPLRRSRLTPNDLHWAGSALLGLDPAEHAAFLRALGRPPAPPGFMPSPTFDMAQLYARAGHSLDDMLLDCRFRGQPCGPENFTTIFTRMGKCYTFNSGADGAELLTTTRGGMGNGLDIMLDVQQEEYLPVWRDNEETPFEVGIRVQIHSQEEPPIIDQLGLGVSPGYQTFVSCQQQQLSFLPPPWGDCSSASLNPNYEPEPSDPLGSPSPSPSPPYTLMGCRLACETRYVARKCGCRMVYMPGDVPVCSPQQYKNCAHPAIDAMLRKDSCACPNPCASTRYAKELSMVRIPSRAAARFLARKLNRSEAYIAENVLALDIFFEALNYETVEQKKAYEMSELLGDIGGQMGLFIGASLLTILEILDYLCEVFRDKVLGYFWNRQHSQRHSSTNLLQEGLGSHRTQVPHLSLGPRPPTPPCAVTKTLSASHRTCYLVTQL

[2] = biological target: T2, Acid-sensing ion channel 3 (Homo sapiens) (UniProt Q9UHC3); assay: Inhibition of human ASIC3 expressed in HEK293 cells assessed as inhibition of acid-evoked current at 1000 uM by manual patch-clamp electrophysiology assay; assay type: cell-based
T2 sequence (whole entry): T1 sequence (Q9UHC3 whole entry)

[3] = Volume of distribution in rat; assay type: ADME, organism-based; conditions: in vivo
[4] = Plasma protein binding in human; assay type: ADME, cell-free; conditions: read-out: PPB (converted)
[5] = Half life in rat; assay type: ADME, organism-based; conditions: in vivo
CYP2C9 = CYP2C9 (Homo sapiens, UniProt P11712); assay: Inhibition of CYP2C9 at 10 uM; assay type: ADME
Chain of CYP2C9 (P11712 whole entry): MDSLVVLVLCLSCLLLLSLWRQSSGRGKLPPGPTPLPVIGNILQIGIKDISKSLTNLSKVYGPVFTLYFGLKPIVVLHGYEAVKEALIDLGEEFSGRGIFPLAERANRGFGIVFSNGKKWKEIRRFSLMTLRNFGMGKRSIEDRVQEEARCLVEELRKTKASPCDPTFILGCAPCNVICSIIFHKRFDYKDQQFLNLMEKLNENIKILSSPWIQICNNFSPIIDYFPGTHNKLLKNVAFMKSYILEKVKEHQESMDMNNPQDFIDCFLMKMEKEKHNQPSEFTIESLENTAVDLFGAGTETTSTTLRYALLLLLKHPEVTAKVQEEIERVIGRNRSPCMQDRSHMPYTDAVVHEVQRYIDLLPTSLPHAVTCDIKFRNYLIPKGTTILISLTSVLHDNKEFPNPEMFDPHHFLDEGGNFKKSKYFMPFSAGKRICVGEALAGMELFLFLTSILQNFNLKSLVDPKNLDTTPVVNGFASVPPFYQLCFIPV

[6] = Plasma protein binding in rat; assay type: ADME, cell-free; conditions: read-out: PPB (converted)
CYP3A4 = CYP3A4 (Homo sapiens, UniProt P08684); assay: Inhibition of CYP3A4 at 10 uM; assay type: ADME
Chain of CYP3A4 (P08684 whole entry): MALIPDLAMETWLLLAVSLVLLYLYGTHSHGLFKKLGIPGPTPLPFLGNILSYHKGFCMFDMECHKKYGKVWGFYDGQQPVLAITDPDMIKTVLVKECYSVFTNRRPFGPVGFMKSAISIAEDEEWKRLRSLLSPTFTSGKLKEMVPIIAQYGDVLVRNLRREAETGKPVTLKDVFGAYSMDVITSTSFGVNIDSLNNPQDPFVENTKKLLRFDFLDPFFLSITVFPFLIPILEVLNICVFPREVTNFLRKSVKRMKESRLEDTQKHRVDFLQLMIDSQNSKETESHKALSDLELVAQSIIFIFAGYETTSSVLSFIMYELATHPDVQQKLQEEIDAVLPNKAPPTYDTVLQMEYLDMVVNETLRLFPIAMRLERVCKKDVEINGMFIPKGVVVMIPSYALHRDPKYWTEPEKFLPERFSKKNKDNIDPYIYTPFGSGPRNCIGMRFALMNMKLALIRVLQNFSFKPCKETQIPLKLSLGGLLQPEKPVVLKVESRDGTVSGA

[7] = biological target: Voltage-gated inwardly rectifying potassium channel KCNH2 (Homo sapiens, UniProt Q12809); assay: Binding affinity to human ERG
Chain of Voltage-gated inwardly rectifying potassium channel KCNH2 (Q12809 whole entry): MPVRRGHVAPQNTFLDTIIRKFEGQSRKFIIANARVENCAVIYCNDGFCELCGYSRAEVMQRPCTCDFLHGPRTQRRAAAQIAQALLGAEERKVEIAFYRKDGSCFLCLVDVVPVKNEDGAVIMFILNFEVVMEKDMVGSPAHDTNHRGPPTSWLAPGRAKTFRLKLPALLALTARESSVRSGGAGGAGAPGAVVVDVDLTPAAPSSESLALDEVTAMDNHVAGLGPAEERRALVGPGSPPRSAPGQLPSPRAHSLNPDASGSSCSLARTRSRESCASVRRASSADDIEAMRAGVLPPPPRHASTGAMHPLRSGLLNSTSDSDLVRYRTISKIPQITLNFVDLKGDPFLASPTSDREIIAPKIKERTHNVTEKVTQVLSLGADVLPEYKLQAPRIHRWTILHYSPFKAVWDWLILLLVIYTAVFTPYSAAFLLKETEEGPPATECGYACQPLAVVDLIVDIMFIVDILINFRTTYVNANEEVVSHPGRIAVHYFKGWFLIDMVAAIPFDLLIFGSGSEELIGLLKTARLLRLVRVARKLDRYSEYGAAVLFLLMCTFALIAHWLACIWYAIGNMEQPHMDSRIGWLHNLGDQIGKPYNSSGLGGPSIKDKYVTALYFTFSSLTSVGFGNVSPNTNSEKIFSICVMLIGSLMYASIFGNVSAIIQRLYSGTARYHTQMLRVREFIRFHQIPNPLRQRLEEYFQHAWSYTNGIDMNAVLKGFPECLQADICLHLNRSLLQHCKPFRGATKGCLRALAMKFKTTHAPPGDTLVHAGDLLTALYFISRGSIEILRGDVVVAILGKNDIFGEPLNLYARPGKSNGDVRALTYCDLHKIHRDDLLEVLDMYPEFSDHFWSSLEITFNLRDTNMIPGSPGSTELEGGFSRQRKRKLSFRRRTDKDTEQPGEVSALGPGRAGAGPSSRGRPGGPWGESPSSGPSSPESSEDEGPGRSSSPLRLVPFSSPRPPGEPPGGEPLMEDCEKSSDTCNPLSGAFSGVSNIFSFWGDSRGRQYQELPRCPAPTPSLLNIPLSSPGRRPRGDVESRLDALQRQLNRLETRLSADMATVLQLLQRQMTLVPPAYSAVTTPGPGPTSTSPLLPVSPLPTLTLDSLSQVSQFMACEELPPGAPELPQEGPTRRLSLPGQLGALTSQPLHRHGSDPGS

[8] = biological target: Voltage-dependent L-type calcium channel subunit alpha-1C (Homo sapiens, UniProt Q13936); assay: Inhibition of Cav1.2
Chain of Voltage-dependent L-type calcium channel subunit alpha-1C (Q13936 whole entry): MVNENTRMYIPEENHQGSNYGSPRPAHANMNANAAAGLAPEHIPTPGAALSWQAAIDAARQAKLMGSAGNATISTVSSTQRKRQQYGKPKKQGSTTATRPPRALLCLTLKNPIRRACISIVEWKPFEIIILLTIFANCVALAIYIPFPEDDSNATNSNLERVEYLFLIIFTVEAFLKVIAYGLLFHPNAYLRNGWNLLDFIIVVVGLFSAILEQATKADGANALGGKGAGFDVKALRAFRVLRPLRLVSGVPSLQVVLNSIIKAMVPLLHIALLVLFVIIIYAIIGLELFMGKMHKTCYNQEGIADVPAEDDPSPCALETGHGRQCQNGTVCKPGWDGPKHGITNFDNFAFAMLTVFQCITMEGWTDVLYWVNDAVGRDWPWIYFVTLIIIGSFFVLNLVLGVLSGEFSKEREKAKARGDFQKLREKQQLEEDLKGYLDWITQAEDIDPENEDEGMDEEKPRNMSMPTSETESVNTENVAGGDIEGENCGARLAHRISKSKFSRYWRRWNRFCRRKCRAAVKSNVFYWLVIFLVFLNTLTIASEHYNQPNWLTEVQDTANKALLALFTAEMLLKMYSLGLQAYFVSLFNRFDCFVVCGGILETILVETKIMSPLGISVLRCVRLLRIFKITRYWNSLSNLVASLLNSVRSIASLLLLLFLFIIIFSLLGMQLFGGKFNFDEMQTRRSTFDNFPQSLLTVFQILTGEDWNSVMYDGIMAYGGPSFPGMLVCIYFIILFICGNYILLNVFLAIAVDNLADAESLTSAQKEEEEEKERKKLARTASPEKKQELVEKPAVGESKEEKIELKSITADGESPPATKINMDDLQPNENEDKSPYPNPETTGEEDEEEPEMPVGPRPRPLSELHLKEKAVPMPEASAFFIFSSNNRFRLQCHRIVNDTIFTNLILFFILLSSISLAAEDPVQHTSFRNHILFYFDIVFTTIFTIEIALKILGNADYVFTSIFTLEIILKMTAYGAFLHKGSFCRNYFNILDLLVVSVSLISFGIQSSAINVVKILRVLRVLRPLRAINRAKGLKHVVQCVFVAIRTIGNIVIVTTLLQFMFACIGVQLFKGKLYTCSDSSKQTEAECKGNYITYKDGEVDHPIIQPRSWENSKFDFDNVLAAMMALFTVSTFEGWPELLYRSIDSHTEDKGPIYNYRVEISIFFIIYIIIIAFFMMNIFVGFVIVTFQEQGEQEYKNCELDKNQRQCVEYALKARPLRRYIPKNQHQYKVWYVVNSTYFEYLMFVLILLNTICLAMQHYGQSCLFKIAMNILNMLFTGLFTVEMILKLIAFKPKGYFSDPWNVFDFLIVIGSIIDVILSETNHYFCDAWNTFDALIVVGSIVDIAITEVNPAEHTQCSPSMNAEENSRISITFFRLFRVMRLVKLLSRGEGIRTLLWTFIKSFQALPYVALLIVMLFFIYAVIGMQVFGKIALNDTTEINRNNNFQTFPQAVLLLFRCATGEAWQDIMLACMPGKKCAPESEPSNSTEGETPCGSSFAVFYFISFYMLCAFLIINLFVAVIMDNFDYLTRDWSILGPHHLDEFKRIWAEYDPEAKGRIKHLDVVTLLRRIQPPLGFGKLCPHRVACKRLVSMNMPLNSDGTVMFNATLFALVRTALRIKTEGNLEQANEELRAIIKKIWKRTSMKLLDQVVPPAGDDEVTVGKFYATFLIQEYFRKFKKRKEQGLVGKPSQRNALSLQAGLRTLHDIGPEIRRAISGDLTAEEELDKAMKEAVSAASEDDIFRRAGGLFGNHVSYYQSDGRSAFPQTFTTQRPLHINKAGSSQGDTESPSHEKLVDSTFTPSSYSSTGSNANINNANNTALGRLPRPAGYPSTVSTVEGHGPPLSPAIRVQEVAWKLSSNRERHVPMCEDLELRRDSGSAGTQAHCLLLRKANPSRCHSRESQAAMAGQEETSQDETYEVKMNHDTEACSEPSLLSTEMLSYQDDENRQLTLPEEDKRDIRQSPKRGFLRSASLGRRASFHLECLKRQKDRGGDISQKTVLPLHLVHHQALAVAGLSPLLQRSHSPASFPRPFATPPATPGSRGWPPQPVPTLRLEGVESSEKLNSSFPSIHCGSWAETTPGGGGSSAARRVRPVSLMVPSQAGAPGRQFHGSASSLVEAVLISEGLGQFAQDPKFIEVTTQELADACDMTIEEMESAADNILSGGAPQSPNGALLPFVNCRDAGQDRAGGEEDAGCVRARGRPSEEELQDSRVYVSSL

[9] = Clearance in rat; assay type: ADME, organism-based; conditions: in vivo
CYP2D6 = CYP2D6 (Homo sapiens, UniProt P10635); assay: Inhibition of CYP2D6 at 10 uM; assay type: ADME
Chain of CYP2D6 (P10635 whole entry): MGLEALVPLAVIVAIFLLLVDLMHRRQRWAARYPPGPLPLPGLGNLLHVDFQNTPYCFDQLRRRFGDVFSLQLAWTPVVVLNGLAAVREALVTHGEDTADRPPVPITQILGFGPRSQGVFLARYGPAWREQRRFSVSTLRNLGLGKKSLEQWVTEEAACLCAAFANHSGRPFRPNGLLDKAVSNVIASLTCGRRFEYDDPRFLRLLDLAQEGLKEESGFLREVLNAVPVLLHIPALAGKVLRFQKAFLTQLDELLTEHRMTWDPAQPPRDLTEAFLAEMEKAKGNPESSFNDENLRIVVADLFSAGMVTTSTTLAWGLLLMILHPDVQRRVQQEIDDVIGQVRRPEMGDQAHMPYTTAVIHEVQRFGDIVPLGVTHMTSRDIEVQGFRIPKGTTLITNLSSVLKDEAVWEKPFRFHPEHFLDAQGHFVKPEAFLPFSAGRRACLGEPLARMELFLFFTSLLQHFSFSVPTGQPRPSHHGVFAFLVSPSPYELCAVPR

[10] = Lipophilicity, log D of the compound by HPLC; assay type: physicochemical
[11] = biological target: T2, Acid-sensing ion channel 3 (Homo sapiens); assay: Inhibition of human ASIC3 expressed in HEK293 cells assessed as inhibition of acid-evoked current at 10 uM by manual patch-clamp electrophysiology assay; assay type: cell-based
[12] = biological target: T2, Acid-sensing ion channel 3 (Homo sapiens); assay: Inhibition of human ASIC3 expressed in HEK293 cells assessed as inhibition of acid-evoked current at 500 uM by manual patch-clamp electrophysiology assay; assay type: cell-based

Row | SMILES | IC50 [1] [µM] | other results
1 | c1cc2c(cc1-c1cnc3c(c1)CCN3)CCNC2 | 19.4 | –
2 | Cc1cccc(Nc2nccc3ccoc23)n1 | 9 | –
3 | NCc1ccc(-c2c[nH]cn2)cc1 | 160 | –
4 | NCc1cc2ccccc2s1 | 97 | –
5 | Nc1ccnc(-c2cccc(C#Cc3ccccc3)c2)c1 | 1.2 | –
6 | Nc1ccnc(-c2ccccc2)c1 | 6.9 | –
7 | c1ccc(-c2c[nH]cn2)cc1 | – | inhibition [2]: 66%
8 | Nc1cccc(-c2ccccc2)n1 | 763 | –
9 | Cc1cccc(Nc2ccc(-c3ccc(N4CCNCC4)nc3)cc2)n1 | 3.8 | Vd [3]: 3.5 L/kg; fraction unbound [4]: 0.098; half-life [5]: 4.8 h; inhibition at 10 µM (CYP2C9): < 45%; fraction unbound [6]: 0.007; inhibition at 10 µM (CYP3A4): < 45%; Ki [7]: 0.7 µM; IC50 [8]: 20 µM; clearance [9]: 11 mL/min/kg; inhibition at 10 µM (CYP2D6): < 45%; logD [10]: 1.99
10 | CN1CCN(c2ccc(-c3ccc4c(c3)CCNC4)cc2C(F)(F)F)CC1 | 3.1 | fraction unbound [4]: 0.11; inhibition at 10 µM (CYP2C9): < 35%; fraction unbound [6]: 0.011; inhibition at 10 µM (CYP3A4): < 35%; IC50 [8]: > 30 µM; inhibition at 10 µM (CYP2D6): < 35%; logD [10]: 2.13
11 | Nc1ccc(-c2c[nH]cn2)cc1 | 430 | –
12 | Nc1ccnc(-c2cccc(C#CCCO)c2)c1 | 2.6 | –
13 | Clc1cc(Cl)cc(-c2ccc3c(c2)CCNC3)c1 | 3.3 | –
14 | NCc1nc2ccccc2s1 | 363 | –
15 | Cc1cc(N2CCc3cc(Br)ccc3C2)c2ccccc2n1 | 27.6 | –
16 | Nc1cc(-c2ccccc2)ncn1 | 130 | –
17 | Brc1ccc2c(c1)CCNC2 | 701 | –
18 | CN1CCN(c2ccc(-c3ccc4c(c3)CCNC4)cc2)CC1 | 14.4 | –
19 | CCCc1cc(NC)c2cc(C(=O)NCCc3ccc(Cl)cc3)ccc2n1 | – | inhibition [11]: 3%
20 | COc1ccc2[nH]cc(CN3CCc4cc(-c5cccc(C(F)(F)F)c5)ccc4C3)c2c1 | 103 | –
21 | CC1CCCCN1c1cccc(-c2ccc3c(c2)CCNC3)n1 (stereo unspecified) | 1.7 | –
22 | COc1cccnc1Nc1cccc(C)n1 | 190 | –
23 | COc1ccc2[nH]cc(CN3CCc4cc(Br)ccc4C3)c2c1 | 10.9 | –
24 | Nc1cc(Cc2ccccn2)nc(-c2ccccc2)c1 | 5.8 | –
25 | FC(F)(F)c1cccc(-c2ccc3c(c2)CCNC3)c1 | 7.1 | –
26 | CCCc1cc(N)c2cc(C(=O)NCCc3ccc(Cl)cc3)ccc2n1 | 9.6 | –
27 | Cc1cccc(Nc2ccc(C#CC(C)(C)O)cc2)n1 | 17 | –
28 | Brc1ccc2c(c1)CCN2 | – | inhibition [12]: 12%
